Laboratory results: patent US11306102B2, “1,3-di-substituted ketene compound and application thereof” (BEBETTER MED INC., priority 2017, dated 2022)

Target: T1, PPARδ (Homo sapiens, UniProt Q03181)
T1 construct: expressed in transfected cells; host or cells: Hela cells
T1 sequence (Q03181 1-441): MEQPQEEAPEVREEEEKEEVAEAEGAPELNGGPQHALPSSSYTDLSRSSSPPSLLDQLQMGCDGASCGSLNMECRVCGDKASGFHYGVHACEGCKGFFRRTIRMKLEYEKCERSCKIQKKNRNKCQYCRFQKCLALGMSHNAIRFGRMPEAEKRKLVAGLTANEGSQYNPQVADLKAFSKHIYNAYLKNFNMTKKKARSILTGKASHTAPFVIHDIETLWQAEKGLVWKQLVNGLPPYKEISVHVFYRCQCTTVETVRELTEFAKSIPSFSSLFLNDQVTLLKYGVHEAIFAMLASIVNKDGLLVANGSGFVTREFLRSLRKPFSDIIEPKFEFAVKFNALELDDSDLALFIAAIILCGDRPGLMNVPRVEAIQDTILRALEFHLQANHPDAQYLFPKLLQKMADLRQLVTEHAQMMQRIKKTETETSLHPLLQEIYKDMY
Assay: Hela cell/luciferase reporter gene method, PPARδ agonist activity
Assay type: cell-based
Settings: for EC50: Hela cells, pPPRE3-TK-Luciferase reporter, 24 hrs incubation, read-out: agonistic activity on PPARδ (EC50)
Protocol: This example measures the biological activity of a PPAR agonist using the Hela cell/luciferase reporter gene method.
The target plasmids PCMV PPARα (Ampicillin+), PCMV PPARγ (Ampicillin+), PCMV PPARδ (Ampicillin+), and pPPRE3-TK-Luciferase (Ampicillin+) were introduced into DH5a competent cells by heat shock treatment, respectively. After being incubated for 1 hour at 37° C. with shaking (180 rpm), the cells were inoculated on LB agar solid medium containing antibiotic Ampicillin, and invertedly cultured at 37° C. for 12-16 hours. Then the monoclonal colony cultured on the medium was taken and inoculated into LB liquid medium for expanded culture. […] The plasmid obtained by centrifugation was suspended in TE buffer, and the plasmid concentration was measured and the mixture was stored at −20° C. Hela cells in the exponential phase were seeded in 6-well plates (8-10^5 cells/well), and after 6-8 hours of culture, the cells were transfected using Lipofectamine® 3000 Transfection Reagent (Invitrogen; #L3000015). A plasmid containing a PPAR binding site (peroxisome proliferator response element, PPRE) and a firefly luciferase gene (pPPRE3-TK-Luciferase) and PPAR expression vector were co-transfected into a Hela cell with a total amount of plasmid DNA of 2.5 ug (the mass ratio of each PPAR expression vector is pPPRE:PPARα=6:1, pPPRE:PPARδ=8:1, and pPPRE:PPARγ=2:1) to construct a drug screening cell model for PPAR agonists. PPAR was binded to the ligand and then binded to the peroxisome proliferator response element (PPRE), thereby initiating downstream firefly luciferase expression and its expression intensity was directly proportional to the degree of PPAR activation. The cells after 24 hours transfection were prepared into a cell suspension with a cell concentration of […] by a complete culture solution, and seeded into a 96-well plate with 100 ul per well. After overnight culture, the medium was changed to a medium containing 1% FBS. 10 mM candidate compound stock (1000×) were 4-fold diluted in DMSO for 8 points, then supplemented with medium containing 1% FBS to a final concentration of 50 uM (5×) by addition of 25 μl of 5× compound diluent to each well in different concentration gradients and incubated under 37° C., 5% CO2 incubator for 24 hrs. The 96-well plate was taken out and 30 μl of Bright-Glo™ Luciferase Assay System (Promega #E2620) was added to each well. The Luciferase luminescence intensity was measured by a SynergyH1 full-function microplate detector. The obtained data was used to calculate EC50 using GraphPad Prism 5.0 software to determine the biological activity of the compound.

Row | SMILES | EC50 | increased activity for activation of PPARδ compared with Elafibranor (compared with Elafibranor)
1 | CSc1cccc2oc(C(=O)/C=C/c3cc(C)c(OC(C)(C)C(=O)O)c(C)c3)cc12 [Compound 60, (E)-2-(2,6-dimethyl-4-(3-(4-(methylthio)benzofuran-2-yl)-3-oxoprop-1-en-1-yl)phenoxy)-2-methylpropanoic acid] | 614 nM | –
2 | CCSc1ccc2c(C)c(C(=O)/C=C/c3cc(C)c(OC(C)(C)C(=O)O)c(C)c3)oc2c1 [Compound 74, (E)-2-(4-(3-(6-(ethylthio)-3-methylbenzofuran-2-yl)-3-oxoprop-1-en-1-yl)-2,6-dimethylphenoxy)-2-methylpropanoic acid] | 144 nM | –
3 | CCc1c(C(=O)/C=C/c2cc(C)c(OC(C)(C)C(=O)O)c(C)c2)oc2cc(SC)ccc12 [Compound 63, (E)-2-(4-(3-(3-ethyl-6-(methylthio)benzofuran-2-yl)-3-oxoprop-1-en-1-yl)-2,6-dimethylphenoxy)-2-methylpropanoic acid] | 205 nM | –
4 | COc1ccc2cc(C(=O)/C=C/c3cc(C)c(OC(C)(C)C(=O)O)c(C)c3)oc2c1 [Compound 43, (E)-2-(4-(3-(6-methoxybenzofuran-2-yl)-3-oxoprop-1-en-1-yl)-2,6-dimethylphenoxy)-2-methylpropanoic acid] | 335 nM | –
5 | CSc1ccc2cc(C(=O)/C=C/c3cc(C)c(OC(C)(C)C(=O)O)c(C)c3)sc2c1 [Compound 81, (E)-2-(2,6-dimethyl-4-(3-(6-(methylthio)benzo[b]thiophen-2-yl)-3-oxoprop-1-en-1-yl)phenoxy)-2-methylpropanoic acid] | 3640 nM | –
6 | CSc1ccc2c(C)c(C(=O)/C=C/c3cc(C)c(OC(C)(C)C(=O)O)c(C)c3)oc2c1 [Compound 62, (E)-2-(2,6-dimethyl-4-(3-(3-methyl-6-(methylthio)benzofuran-2-yl)-3-oxoprop-1-en-1-yl)phenoxy)-2-methylpropanoic acid] | 210 nM | –
7 | CSc1ccc2cc(C(=O)/C=C/c3cc(C)c(OC(C)(C)C(=O)O)c(C)c3)oc2c1 [Compound 51, (E)-2-(2,6-dimethyl-4-(3-(6-(methylthio)benzofuran-2-yl)-3-oxoprop-1-en-1-yl)phenoxy)-2-methylpropanoic acid] | 64.9 nM | 2 fold
8 | CSc1ccc(C(=O)/C=C/c2cc(C)c(OC(C)(C)C(=O)O)c(C)c2)c2occc12 [Compound 5, (E)-2-(2,6-dimethyl-4-(3-(4-(methylthio)benzofuran-7-yl)-3-oxoprop-1-en-1-yl)phenoxy)-2-methylpropanoic acid] | 36 nM | –
9 | CSc1ccc(C(=O)/C=C/c2cc(C)c(OC(C)(C)C(=O)O)c(C)c2)c2ccoc12 [Compound 27, (E)-2-(2,6-dimethyl-4-(3-(7-(methylthio)benzofuran-4-yl)-3-oxoprop-1-en-1-yl)phenoxy)-2-methylpropanoic acid] | 604 nM | –
10 | CSc1ccc2c(C)c(C(=O)/C=C/c3cc(Cl)c(OC(C)(C)C(=O)O)c(Cl)c3)oc2c1 [Compound 103, (E)-2-(2,6-dichloro-4-(3-(3-methyl-6-(methylthio)benzofuran-2-yl)-3-oxoprop-1-en-1-yl)phenoxy)-2-methylpropanoic acid] | 164 nM | –
11 | CCSc1ccc(C(=O)/C=C/c2cc(C)c(OC(C)(C)C(=O)O)c(C)c2)c2occc12 [Compound 6, (E)-2-(4-(3-(4-(ethylthio)benzofuran-7-yl)-3-oxoprop-1-en-1-yl)-2,6-dimethylphenoxy)-2-methylpropanoic acid] | 119 nM | –
12 | CSc1ccc2cc(C(=O)/C=C/c3cc(Cl)c(OC(C)(C)C(=O)O)c(Cl)c3)oc2c1 [Compound 100, (E)-2-(2,6-dichloro-4-(3-(6-(methylthio)benzofuran-2-yl)-3-oxoprop-1-en-1-yl)phenoxy)-2-methylpropanoic acid] | 87.1 nM | –
13 | Cc1cc(/C=C/C(=O)c2ccc3c(c2)CCS3)cc(C)c1OC(C)(C)C(=O)O [Compound 36, (E)-2-(4-(3-(2,3-dihydrobenzo[b]thiophen-5-yl)-3-oxoprop-1-en-1-yl)-2,6-dimethylphenoxy)-2-methylpropanoic acid] | 120 nM | –
